Reference: ChEMBL document CHEMBL1201862, “PubChem BioAssay data set” (2004)
The source made the active and inactive calls.

Columns and labels:
[1] = target: Latent membrane protein 1 (Human herpesvirus 4 (strain B95-8), UniProt P03230); assay: TES1-eGFP NF-kB reporter inhibition versus Tet-On dsRED, dose response, selectivity assay for LMP1 NF-kB inhibitor project, imaging, HEK293T, dual-color eGFP/dsRED, cherry-picks (AID 588398); type: functional, cell-based
HEK293 [2] = assay: inhibitors of LMP1-driven NF-kB reporter, dose response, cell-based, HEK293, luciferase, cherry-pick (AID 588343); type: functional; conditions: Homo sapiens
Insulin-degrading enzyme [3] = target: T1, Insulin-degrading enzyme (Homo sapiens, UniProt P14735); assay: activators of recombinant IDE enzyme, dose response, counter-screen for IDE activator project, biochemical, fluorescence polarization (AID 588681)
T1 sequence (P14735 whole entry): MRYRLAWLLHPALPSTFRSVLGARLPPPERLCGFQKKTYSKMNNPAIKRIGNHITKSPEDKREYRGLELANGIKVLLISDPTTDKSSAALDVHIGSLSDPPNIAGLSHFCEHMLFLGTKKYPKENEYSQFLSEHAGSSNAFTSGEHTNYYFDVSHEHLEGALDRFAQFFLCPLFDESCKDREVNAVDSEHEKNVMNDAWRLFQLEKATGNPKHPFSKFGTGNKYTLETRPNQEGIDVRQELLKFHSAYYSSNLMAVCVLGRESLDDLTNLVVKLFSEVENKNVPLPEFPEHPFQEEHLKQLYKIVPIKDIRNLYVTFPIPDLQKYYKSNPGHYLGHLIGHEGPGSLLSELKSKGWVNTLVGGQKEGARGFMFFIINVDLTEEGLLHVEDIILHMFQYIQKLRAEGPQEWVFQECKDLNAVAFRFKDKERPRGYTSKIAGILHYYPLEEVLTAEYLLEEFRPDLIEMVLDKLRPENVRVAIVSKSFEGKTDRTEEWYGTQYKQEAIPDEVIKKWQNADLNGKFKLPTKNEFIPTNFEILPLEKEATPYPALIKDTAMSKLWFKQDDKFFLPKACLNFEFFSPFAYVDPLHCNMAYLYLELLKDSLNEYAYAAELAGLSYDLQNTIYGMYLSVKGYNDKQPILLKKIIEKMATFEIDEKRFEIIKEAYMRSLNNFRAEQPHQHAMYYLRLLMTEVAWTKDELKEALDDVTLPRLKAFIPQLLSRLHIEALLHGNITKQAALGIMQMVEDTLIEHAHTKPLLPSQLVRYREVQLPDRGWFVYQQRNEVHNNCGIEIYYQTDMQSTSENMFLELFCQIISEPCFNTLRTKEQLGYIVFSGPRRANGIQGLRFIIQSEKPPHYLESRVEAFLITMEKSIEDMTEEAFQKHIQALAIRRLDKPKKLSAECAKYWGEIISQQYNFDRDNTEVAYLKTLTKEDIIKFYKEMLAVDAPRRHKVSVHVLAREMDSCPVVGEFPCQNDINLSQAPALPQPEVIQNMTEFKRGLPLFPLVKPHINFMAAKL

[4] = target: T2, RNA-binding protein pos-1 (Caenorhabditis elegans, UniProt G5EF15); assay: inhibitors of POS-1/mex-3 RNA binding, dose response, biochemical, fluorescence polarization (AID 1964);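 further: purified POS-1 fused to maltose binding protein made in E. coli; potency of compounds blocking POS-1 binding to fluorescent RNA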
T2 sequence (G5EF15 whole entry): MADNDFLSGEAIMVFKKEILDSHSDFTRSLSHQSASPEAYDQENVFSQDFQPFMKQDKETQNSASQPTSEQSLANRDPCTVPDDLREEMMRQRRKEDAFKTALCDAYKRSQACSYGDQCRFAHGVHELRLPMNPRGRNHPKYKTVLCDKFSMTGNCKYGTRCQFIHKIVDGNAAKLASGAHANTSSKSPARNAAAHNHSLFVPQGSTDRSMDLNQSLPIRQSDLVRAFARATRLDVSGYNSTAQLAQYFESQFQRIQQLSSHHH

[5] = Luminescence Cell-Based Dose Response HTS to Identify Activators of Luciferase Translation or Activity in H4 […] Cells. [Related pubchem assays: 1829 (Project Summary), 1814 (Primary HTS)]; type: functional
[6] = Luminescence Cell-Based Dose Confirmation HTS to Identify Activators of 5'UTR Stem-Loop Driven Alpha-Synuclein mRNA Translation in H4 Neuroglioblastoma Cells. [Related pubchem assays: 1829 (Project Summary), 1814 (Primary HTS)]; type: functional
H4 = assay: Luminescence Cell-Based Dose Response HTS to Identify Activators of 5'UTR Stem-Loop Driven Prion Protein mRNA Translation in H4 Neuroglioblastoma Cells. [Related pubchem assays: 1829 (Project Summary), 1814 (Primary HTS)]; type: functional; conditions: Homo sapiens
HEK293 [7] = assay: HEK cell cytotoxicity by LDH release, dose response, cytotoxicity control for IDE activator project, fluorescence, HEK cells (AID 588440); type: functional, cell-based; conditions: Homo sapiens;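 further: cytotoxicity by LDH release measuring loss of membrane integrity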
[8] = target: T3, Zinc finger protein mex-5 (Caenorhabditis elegans, UniProt Q9XUB2); assay: MEX-5/TCR-2 RNA interaction inhibitors, dose response, biochemical, C. elegans, fluorescence polarization (AID 1960)
T3 sequence (Q9XUB2 whole entry): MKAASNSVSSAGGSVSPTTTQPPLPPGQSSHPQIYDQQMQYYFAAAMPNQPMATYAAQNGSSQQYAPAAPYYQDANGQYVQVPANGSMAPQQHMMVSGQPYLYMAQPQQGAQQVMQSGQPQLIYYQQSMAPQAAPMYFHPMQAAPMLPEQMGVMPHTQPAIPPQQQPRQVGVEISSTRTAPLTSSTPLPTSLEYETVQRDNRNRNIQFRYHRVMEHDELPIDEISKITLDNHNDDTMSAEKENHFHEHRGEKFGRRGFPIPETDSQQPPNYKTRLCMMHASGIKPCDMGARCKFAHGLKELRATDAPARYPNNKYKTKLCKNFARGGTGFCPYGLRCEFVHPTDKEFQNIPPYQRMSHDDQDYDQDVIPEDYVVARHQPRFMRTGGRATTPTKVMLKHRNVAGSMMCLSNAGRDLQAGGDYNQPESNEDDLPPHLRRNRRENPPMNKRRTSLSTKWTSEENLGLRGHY

INS1 = assay: beta cell apoptosis inhibitors, cytokine rescue, dose response, luminescence, retest (AID 449756); type: functional, cell-based; conditions: Rattus norvegicus;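 further: cell death triggered by IL-1 beta plus TNF-alpha plus IFN-gamma mixture; protective hits raise ATP signal compared with cytokine alone wells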
HEK293 [9] = assay: optical interference in Abeta FP readout, dose response, artefact control for IDE activator project, biochemical, fluorescence polarization (AID 588442); type: functional, cell-based; conditions: Homo sapiens
Insulin-degrading enzyme [10] = target: T1, Insulin-degrading enzyme; assay: activators of endogenous IDE in HEK cells, dose response, cell-based, fluorescence polarization (AID 588439); type: functional

Chain of Latent membrane protein 1 (P03230 whole entry): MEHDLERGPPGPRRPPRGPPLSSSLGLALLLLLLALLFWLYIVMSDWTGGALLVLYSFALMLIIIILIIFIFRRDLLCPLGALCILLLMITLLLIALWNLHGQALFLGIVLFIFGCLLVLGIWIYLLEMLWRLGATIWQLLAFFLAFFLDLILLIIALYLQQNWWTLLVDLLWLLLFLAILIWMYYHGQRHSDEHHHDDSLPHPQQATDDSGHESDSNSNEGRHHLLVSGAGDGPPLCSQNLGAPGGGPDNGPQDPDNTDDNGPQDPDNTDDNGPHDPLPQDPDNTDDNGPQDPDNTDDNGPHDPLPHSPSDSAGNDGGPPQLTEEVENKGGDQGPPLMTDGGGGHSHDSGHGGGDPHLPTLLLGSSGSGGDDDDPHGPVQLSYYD

| Compound | AC50 [1] | AC50 (HEK293 [2]) | EC50 (Insulin-degrading enzyme [3]) | EC50 [4] | EC50 [5] | EC50 [6] | EC50 (H4) | IC50 (HEK293 [7]) | EC50 [8] | AC50 (INS1) | EC50 (HEK293 [9]) | EC50 (Insulin-degrading enzyme [10]) |
| --- | --- | --- | --- | --- | --- | --- | --- | --- | --- | --- | --- | --- |
| COc1cccc(-c2nc(NCc3ccccc3)c3ccccc3n2)c1O | 91 µM (active) |  |  |  |  |  |  |  |  |  |  |  |
| Cc1ccc(S(=O)(=O)NC(CC(C)C)C(=O)NCC(c2ccco2)N2CCCCC2)cc1 (stereo not drawn) | 24.5 µM (active) | 1.8 µM (active) |  |  |  |  |  |  |  |  |  |  |
| Cc1ccc(NNC2=C3N=NN=C3C=CC2=O)cc1 |  |  | 1.32 µM (active) | 22.4 µM (active) | 50.3 µM (active) | 0.399 µM (active) | > 120 µM (not active) | > 89.3 µM (inactive) | 2.99 µM (active) | 5.05 µM (active) | 0.659 µM (active) | 0.891 µM (active) |
